Experimental data published in US5137914A, “Sulfonylamino substituted bicyclo [2.2.1]heptane hydroxamic acid derivatives useful as pharmaceuticals” (Shionogi & Co., Ltd., priority 1990, dated 1992).

Experiments:
rat platelet = experiment: Partial agonistic activity (activity to induce the shape change in rat platelet); assay type: cell-based; settings: decrease in light transmission, rat washed platelets, 0.1M CaCl2, read-out: ED50 of partial agonistic activity (shape change)
Protocol: (§1) From the abdominal artery of a male rat (Sprague-Dowley, 7 weeks old) was collected 10 ml of blood with a plastic syringe containing 1.5 ml of ACD (85 mM of sodium citrate, 70 mM of citric acid, 110 mM of glucose) and 20 μg of prostaglandin E1. The blood was placed in a plastic test tube, shaken moderately turning and centrifuged for 10 minutes at 160×g to give platelet rich plasma (PRP). To the prepared PRP was added apyrase (25 μg/ml) and the mixture was layered on 40% bovine serum albumin. The resulting mixture was centrifuged at 1200×g for 25 minutes. The suspension of the prepared platelet pellets in a small amount of a buffer (137 mM of NaCl, 2.7 mM of KCl, 1.0 mM MgCl2, 3.8 mM of NaH2 PO4, 3.8 mM of Hepes, 5.6 mM of glucose, 0.035% of bovine serum albumin, pH 7.35) was applied on 10 ml of Sepharose 2B column and eluted with such a buffer to prepare washed platelets.
(§2) The platelet aggregation reaction was measured by the aggregometer (NKK HEMA TRACER 1 MODEL PAT-6A.6M, Nikkou Bioscience).
Furthermore, partial agonistic activity (activity to induce the shape change in rat platelet) was determined according to the method used for the reaction of platelet aggregation. To the washed platelets was added 0.1M CaCl2 aqueous solution and 1 minute later, the decrease in light transmission caused by the test compounds was determined to estimate the activity.

[1] = tested on: rat washed platelets (thromboxane A2-receptor antagonistic activity); experiment: Inhibitory Effect on Platelet Aggregation in Rat (washed platelets, collagen-induced, in vitro); assay type: cell-based, rat (Sprague-Dowley); settings: 0.05 h, collagen inducer, 37° C., 3 minutes after inducer, Compounds Ia and Ib used as their sodium salts, read-out: Inhibition for Platelet Aggregation IC50
Protocol: as §1, §2
In a measuring curvette was placed 245 μl of the washed platelets which concentration was adjusted to […] and set in the aggregometer. The adjusted washed platelets were stirred (1000 rpm) at 37° C. and 3.8 μl of 0.1M CaCl2 was added thereto. One minute later, 0.5 μl of a solution of a test compound in dimethylsulfoxide was added and 2 minutes later, 1 μl of collagen (Collagen reagent Horm®, HORMON-CHEMIE Munchen GMBH, final concentration […]) was added as an inducer for platelet aggregation. Platelet aggregation was monitored in terms of the increase and decrease in light transmission.
Concentration of 50% inhibition for platelet aggregation was calculated from the rate of aggregation. (The rate corresponds to light transmission of a sample which was measured at 3 minutes after adding the inducer for platelet aggregation, provided that light transmissions of the washed platelets and the buffer samples are taken as 0% and 100%, respectively.)

mice = experiment: Respiration inhibitory activity on intravenous injection to mice (index of partial agonistic activity); assay type: in vivo; settings: intravenously injected to mice

Cc1ccc(S(=O)(=O)N[C@H]2[C@H]3CC[C@H](C3)[C@@H]2C/C=C\CCCC(=O)O)cc1 [Rf. Compd., reference compound]
EC50 (rat platelet): 1 nM
IC50 [1]: 2 nM

CN(O)C(=O)CCC/C=C\C[C@H]1[C@@H]2CC[C@@H](C2)[C@@H]1NS(=O)(=O)c1ccccc1 [If, (1R, 2S, 3S, 4S)-(5Z) -N-methyl-7-(3-phenylsulfonylaminobicyclo[2.2.1]hept-2-yl)-5-heptenohydroxamic acid]
IC50 [1]: 20 nM

CONC(=O)CCC/C=C\C[C@H]1[C@@H]2CC[C@@H](C2)[C@@H]1NS(=O)(=O)c1ccccc1 [Ie, (1R, 2S, 3S, 4S)-(5Z)-0-methyl-7-[3-phenylsulfonylaminobicyclo[2.2.1]hept-2-yl]-5-heptenohydroxamic acid]
IC50 [1]: 60 nM

O=C(CCC/C=C\C[C@H]1[C@@H]2CC[C@@H](C2)[C@@H]1NS(=O)(=O)c1ccc(O)cc1)NO [Ib, (1R,2S,3S,4S)-(5Z)-7-[3-(4-hydroxyphenylsulfonylamino)bicyclo[2.2.1]hept-2-yl]-5-heptenohydroxamic acid]
IC50 [1]: 10 nM

O=C(CCC/C=C\C[C@H]1[C@@H]2CC[C@@H](C2)[C@@H]1NS(=O)(=O)c1ccccc1)NO [Ia, (1R,2S,3S,4S)-(5Z)-7-(3-phenylsulfonyl-aminobicyclo[2.2.1]hept-2-yl)-5-heptenohydroxamic acid]
IC50 [1]: 12 nM
partial agonistic activity by determination of respiration inhibitory activity (mice): substantially no partial agonistic activity

O=C(CCC/C=C\[C@@H]1[C@H]2CC[C@H](C2)[C@H]1CNS(=O)(=O)c1ccc(Br)cc1)NO [Ic, (1S, 2S, 3R, 4R)-(5Z)-6-[3-(4-bromophenylsulfonylaminomethyl)bicyclo[2.2.1]hept-2-yl]-5-hexenohydroxamic acid]
IC50 [1]: 20 nM
